Measured values published in patent US20140315889A1, “HYDROXAMATE DERIVATIVES FOR HDAC INHIBITOR, AND THE PHARMACEUTICAL COMPOSITION COMPRISING THEREOF” (CHONG KUN DANG PHARMACEUTICAL CORP., priority 2011, published 2014).
Where two headings read alike, the source gives them in different places.

Experiments:
Format in all cases: biochemical
[1] = target: T1, human recombinant HDAC6 (Homo sapiens, UniProt Q9UBN7); assay: HDAC enzyme activity test, HDAC6; details: for Selectivity for HDAC6, HD1/HD6: ratio HDAC1 IC50 / HDAC6 IC50
T1 construct: purchased Calibiochem Co. (so in the source) 382180
T1 sequence (Q9UBN7 1-1215): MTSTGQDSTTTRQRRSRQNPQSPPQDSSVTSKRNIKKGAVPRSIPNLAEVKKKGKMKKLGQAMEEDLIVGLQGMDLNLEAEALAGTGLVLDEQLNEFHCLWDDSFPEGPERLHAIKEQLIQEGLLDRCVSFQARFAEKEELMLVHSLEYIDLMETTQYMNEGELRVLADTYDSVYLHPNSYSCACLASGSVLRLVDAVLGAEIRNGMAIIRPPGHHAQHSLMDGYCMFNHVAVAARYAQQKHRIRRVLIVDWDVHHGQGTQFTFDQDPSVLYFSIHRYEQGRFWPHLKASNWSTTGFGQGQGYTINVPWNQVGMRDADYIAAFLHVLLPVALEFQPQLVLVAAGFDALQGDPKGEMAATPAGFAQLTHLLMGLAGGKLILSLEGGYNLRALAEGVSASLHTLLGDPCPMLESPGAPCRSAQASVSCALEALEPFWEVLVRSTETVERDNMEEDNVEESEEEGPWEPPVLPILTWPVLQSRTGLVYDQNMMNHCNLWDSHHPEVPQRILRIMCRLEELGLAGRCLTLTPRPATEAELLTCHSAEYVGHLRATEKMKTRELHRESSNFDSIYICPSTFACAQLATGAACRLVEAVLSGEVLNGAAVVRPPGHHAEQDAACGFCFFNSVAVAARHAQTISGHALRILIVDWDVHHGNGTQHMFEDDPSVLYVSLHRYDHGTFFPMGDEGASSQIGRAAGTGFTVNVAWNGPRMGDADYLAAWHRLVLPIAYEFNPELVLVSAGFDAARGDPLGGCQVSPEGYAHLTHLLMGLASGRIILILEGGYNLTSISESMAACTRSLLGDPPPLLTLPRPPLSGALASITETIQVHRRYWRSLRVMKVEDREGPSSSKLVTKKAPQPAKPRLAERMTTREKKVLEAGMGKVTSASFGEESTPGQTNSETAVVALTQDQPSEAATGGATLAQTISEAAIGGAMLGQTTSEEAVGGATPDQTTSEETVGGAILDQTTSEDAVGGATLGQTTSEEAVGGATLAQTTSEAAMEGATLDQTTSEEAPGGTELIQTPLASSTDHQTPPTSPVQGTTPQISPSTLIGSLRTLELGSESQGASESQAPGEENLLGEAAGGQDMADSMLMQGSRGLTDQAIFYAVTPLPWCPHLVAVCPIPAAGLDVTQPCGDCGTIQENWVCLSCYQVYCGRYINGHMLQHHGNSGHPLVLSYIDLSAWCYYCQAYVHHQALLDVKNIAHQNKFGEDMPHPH
Description: (§1) Then, 0.3 μg of enzyme and 10 μM of substrate per well were added, reacted at 30° C. for 60 minutes. Thereto, Fluor de Lys® Developer II (BML-KI176) was added and reacted for 30 minutes. […] From the data, the respective IC50 were calculated by GraphPad Prism 4.0 program.

[2] = target: HDAC4 (Homo sapiens, UniProt P56524); assay: HDAC enzyme activity test, HDAC4; details: Table 11, eleven HDAC isozymes; read-out: Inhibition ability (IC50) against HDAC4
HDAC4, sequence (P56524 whole entry, species assumed): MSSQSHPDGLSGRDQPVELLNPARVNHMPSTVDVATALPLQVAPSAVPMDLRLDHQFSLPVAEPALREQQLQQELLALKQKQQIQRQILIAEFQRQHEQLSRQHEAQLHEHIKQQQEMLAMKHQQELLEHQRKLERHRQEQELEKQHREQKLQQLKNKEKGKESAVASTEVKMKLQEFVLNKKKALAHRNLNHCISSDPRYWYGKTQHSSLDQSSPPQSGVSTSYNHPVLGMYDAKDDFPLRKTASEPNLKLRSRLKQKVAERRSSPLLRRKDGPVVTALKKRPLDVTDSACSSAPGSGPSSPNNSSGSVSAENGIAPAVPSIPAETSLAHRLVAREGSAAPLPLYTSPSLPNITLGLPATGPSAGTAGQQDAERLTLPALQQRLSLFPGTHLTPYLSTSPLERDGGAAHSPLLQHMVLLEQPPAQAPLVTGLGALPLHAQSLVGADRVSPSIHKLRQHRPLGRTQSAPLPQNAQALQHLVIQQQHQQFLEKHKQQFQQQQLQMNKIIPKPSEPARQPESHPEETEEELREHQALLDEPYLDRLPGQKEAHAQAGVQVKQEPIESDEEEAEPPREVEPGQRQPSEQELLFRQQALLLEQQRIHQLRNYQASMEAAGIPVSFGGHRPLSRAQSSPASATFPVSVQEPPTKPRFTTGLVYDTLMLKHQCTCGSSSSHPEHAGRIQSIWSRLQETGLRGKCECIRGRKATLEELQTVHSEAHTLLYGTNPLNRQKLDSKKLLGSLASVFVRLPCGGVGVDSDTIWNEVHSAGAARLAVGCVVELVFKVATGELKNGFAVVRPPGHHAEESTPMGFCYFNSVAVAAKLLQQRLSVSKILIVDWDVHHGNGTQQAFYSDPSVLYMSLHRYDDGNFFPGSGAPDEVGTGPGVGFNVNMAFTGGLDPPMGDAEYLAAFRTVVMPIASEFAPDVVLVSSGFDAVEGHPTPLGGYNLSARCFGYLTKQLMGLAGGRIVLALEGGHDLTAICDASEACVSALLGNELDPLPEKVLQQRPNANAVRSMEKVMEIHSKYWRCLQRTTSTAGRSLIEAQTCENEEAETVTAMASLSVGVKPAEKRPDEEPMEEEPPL
Description: as §1

[3] = target: T2, HDAC11 (Homo sapiens, UniProt Q96DB2); assay: HDAC enzyme activity test, HDAC11; details: Table 11, eleven HDAC isozymes; read-out: Inhibition ability (IC50) against HDAC11
T2 sequence (Q96DB2 1-347): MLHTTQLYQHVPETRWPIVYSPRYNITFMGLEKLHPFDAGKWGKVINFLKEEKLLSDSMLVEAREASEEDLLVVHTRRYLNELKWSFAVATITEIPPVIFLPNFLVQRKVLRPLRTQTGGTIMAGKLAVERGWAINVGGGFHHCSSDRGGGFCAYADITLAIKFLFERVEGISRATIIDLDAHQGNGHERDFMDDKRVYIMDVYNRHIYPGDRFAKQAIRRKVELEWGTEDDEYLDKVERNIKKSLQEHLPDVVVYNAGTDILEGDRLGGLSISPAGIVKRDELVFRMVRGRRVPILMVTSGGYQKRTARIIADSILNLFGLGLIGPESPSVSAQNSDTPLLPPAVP
Description: as §1

[4] = target: T3, HDAC8 (Homo sapiens, UniProt Q9BY41); assay: HDAC enzyme activity test, HDAC8; details: Table 11, eleven HDAC isozymes; read-out: Inhibition ability (IC50) against HDAC8
T3 sequence (Q9BY41 1-377): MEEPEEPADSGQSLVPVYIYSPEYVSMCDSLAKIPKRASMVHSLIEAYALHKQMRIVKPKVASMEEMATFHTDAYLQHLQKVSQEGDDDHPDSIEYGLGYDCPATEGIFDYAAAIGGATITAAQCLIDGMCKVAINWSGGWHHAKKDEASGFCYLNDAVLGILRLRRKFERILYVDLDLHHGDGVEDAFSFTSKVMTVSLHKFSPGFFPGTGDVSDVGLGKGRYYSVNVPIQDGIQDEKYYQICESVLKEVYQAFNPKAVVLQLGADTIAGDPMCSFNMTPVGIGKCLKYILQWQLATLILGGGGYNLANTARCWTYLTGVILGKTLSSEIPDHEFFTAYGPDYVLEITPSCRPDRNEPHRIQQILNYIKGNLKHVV
Description: as §1

[5] = Table 11, eleven HDAC isozymes, read-out: Inhibition ability (IC50) against HDAC6
[6] = Table 12, read-out: Inhibition ability (IC50) HDAC6

| SMILES | IC50 [1, 5] | IC50 [2] | IC50 [3] | IC50 [4] | Selectivity for HDAC6, HD1/HD6 ([1]; Table 12) | IC50 [1, 6] | IC50 ([1]; data of Table 11, read-out: IC50 against HDAC6) | selectivity for HDAC6 over HDAC1 ([1]; from the data of Table 11) | selectivity for HDAC6 over HDAC1 ([1]; from the data of Table 12) |
| --- | --- | --- | --- | --- | --- | --- | --- | --- | --- |
| CN1CCN(C(=O)N(CCCCCCC(=O)NO)c2ccc(-c3ccc4cnn(C)c4c3)cc2)CC1 [CKD-581, reference compound] | 2.39 nM | 1680 nM | 1.52 nM | 86.1 nM | – | – | – | – | – |
| O=C(NO)c1ccc(Cn2c3c(c4ccccc42)C(=O)C(CN2CCOCC2)CC3)cc1 (stereo not shown) [Compound 87, N-hydroxy-4-((3-(morpholinomethyl)-4-oxo-1,2,3,4-tetrahydrocarbazol-9-yl)methyl)benzamide] | 13.1 nM | 934 nM | 37500 nM | 1280 nM | 411.8 | 7.45 nM | 13 nM | more than 800 times | – |
| CN1CCN(CC2CCc3c(c4cc(F)ccc4n3Cc3ccc(C(=O)NO)cc3)C2=O)CC1 (stereo not shown) [Compound 142, 4-((6-fluoro-3-((4-methylpiperazin-1-yl)methyl)-4-oxo-1,2,3,4-tetrahydrocarbazol-9-yl)methyl)-N-hydroxybenzamide] | 3.55 nM | 2210 nM | 11100 nM | 1060 nM | 568.3 | 4.7 nM | – | – | – |
| CC1(C)CC(=O)c2c(C(F)(F)F)nn(Cc3ccc(C(=O)NO)cc3)c2C1 [Compound 237, 4-((6,6-dimethyl-4-oxo-3-(trifluoromethyl)-4,5,6,7-tetrahydro-1H-indazol-1-yl)methyl)-N-hydroxybenzamide] | 32.2 nM | 4990 nM | 33900 nM | 3930 nM | 219.3 | 17.8 nM | – | – | more than 219 times |
| O=C(NO)c1ccc(Cn2c3c(c4ccccc42)C(=O)N(CCN2CCOCC2)CC3)cc1 [Compound 249, N-hydroxy-4-((2-(2-morpholinoethyl)-1-oxo-1,2,3,4-tetrahydropyrido[4,3-b]indol-5-yl)methyl)benzamide] | 5.09 nM | 255 nM | 5530 nM | 220 nM | 162.2 | 21.3 nM | – | – | – |
